# Patent publication US20230257373A1, “QUORUM SENSING INHIBITORS AND METHODS OF USE” (priority 2020, published 2023)
# Like-named read-outs stand apart in the source and are kept apart here.
# Tests used:
# Vibrio strains = experiment: luxCDABE reporter across five Vibrio species; settings: each Vibrio strain except V. cholerae
# V. cholerae = experiment: Quorum sensing reporter in V. cholerae; settings: even at high concentrations
# SmcR [1] = molecular target: T1, SmcR (Vibrio vulnificus, UniProt Q9L8G8); experiment: ITC analysis of SmcR interaction with inhibitors; type: binding, V. vulnificus
# From the text: To test the validity of the modelling predictions for PTSP, we performed isothermal titration calorimetry (ITC) to determine the binding affinity of SmcR and LuxR for PTSP. […] We noted that PTSP binding to both LuxR and SmcR had lower entropy and enthalpy compared to SmcR binding to Qstatin. […] Thus, we conclude that the efficacy of PTSP inhibition in vivo in these two Vibrio species correlates to the binding affinity determined in vitro for these two proteins.
# (§1) SmcR and LuxR were purified as described previously. EMSAs were conducted as described previously using oligonucleotides corresponding to the luxC and vvpE promoter sequences. ITC analysis was conducted using purified LuxR or His-tagged SmcR, each in gel-filtration buffer (25 mM Tris pH 7.5, 300 mM NaCl, 0.5 mM EDTA, 1 mM DTT, 2% DMSO). All molecules analyzed were diluted in the same buffer. The samples were degassed for 10 min by vacuum aspiration. Titrations were performed on a Nano-ITC (TA Instruments). […] Thermograms were analyzed using NanoAnalyze software with the independent binding model.
# [2] = tested on: PluxC-gfp reporter in V. vulnificus; experiment: PluxC-gfp reporter in V. vulnificus strains; settings: Vibrio vulnificus
# VcpR = experiment: E. coli bioassay expressing VcpR (IPTG-inducible plasmid); type: cell-based, V. coralliilyticus; settings: 25 μM PTSP
# From the text: (§2) We hypothesized that there were several possible reasons for the observed difference in PTSP inhibition in the various Vibrio species, including but not limited to: 1) differences in LuxR-inhibitor interaction(s), 2) differences in diffusion of the inhibitor across the membranes, or 3) stability of the inhibitor in the cell and/or cell culture. To examine PTSP activity in a common strain background, we cloned the luxR gene from each Vibrio species into a plasmid under control of an IPTG-inducible promoter and assayed the effect of PTSP against these proteins in the E. coli bioassay. […] We conclude that the differences in PTSP activity in Vibrio species is due to differences in interaction between PTSP and the LuxR-type protein in each Vibrio.
# (§3) In E. coli assays expressing the five different LuxR-type proteins (luxR, smcR, opaR, vcpR, hapR), slight changes to the protocol were implemented. The luxR genes were cloned under control of the IPTG-inducible Ptac promoter in plasmid pMMB67EH-kanR. […] Strains expressing hapR or smcR required 50 μM IPTG to observe activation of the GFP reporter; IPTG was not added to strains expressing luxR, vcpR, or opaR.
# [3] = tested on: V. coralliilyticus protease activity; experiment: Protease assay (azocasein) in V. coralliilyticus; settings: 2.5 μM PTSP vs DMSO
# [4] = tested on: V. campbellii protease activity; experiment: Protease assay (azocasein) in V. campbellii; settings: 2.5 μM PTSP vs DMSO
# LuxR = LuxR (Vibrio harveyi, UniProt P21308); experiment: E. coli bioassay expressing LuxR (IPTG-inducible plasmid); type: cell-based, V. campbellii; set-up: expressed in transfected cells; host or cells: E. coli DH10B with pMMB67EH-kanR derivative and pJV064; settings: 25 μM PTSP
# From the text: as §2, §3
# HapR = experiment: E. coli bioassay expressing HapR (IPTG-inducible plasmid); type: cell-based, V. cholerae
# From the text: as §2
# (§4) We therefore sought to determine if any of the four residues that differ between HapR and LuxR/SmcR in the putative ligand binding pocket are sufficient to render SmcR insensitive to PTSP. First, we introduced substitutions in SmcR to mimic the amino acid sequence of HapR: F75Y, I96L, […], and C170F. […] Next, we introduced single substitutions in HapR to mimic the amino acid present in SmcR: Y76F, L97I, I141V, and F171C.
# as §3
# [5] = tested on: PluxC-gfp reporter in V. parahaemolyticus; experiment: PluxC-gfp reporter in V. parahaemolyticus strains; settings: Vibrio parahaemolyticus
# [6] = tested on: V. vulnificus protease activity; experiment: Protease assay (azocasein) in V. vulnificus; settings: for IC50: Vibrio vulnificus
# SmcR [7] = molecular target: T1, SmcR; experiment: E. coli bioassay expressing SmcR (IPTG-inducible plasmid); type: cell-based, V. vulnificus
# From the text: as §2, §4, §3
# OpaR = experiment: E. coli bioassay expressing OpaR (IPTG-inducible plasmid); type: cell-based, V. parahaemolyticus; settings: 25 μM PTSP
# From the text: as §2, §3
# SmcR [8] = molecular target: T1, SmcR; experiment: EMSA DNA binding activity of SmcR; type: biochemical, V. vulnificus; settings: saturating concentrations
# Experimental: We noted that Qstatin and PTSP are both predicted to bind in the putative ligand binding pocket of SmcR. It is currently unknown how Qstatin allosterically affects DNA binding through its interactions in the ligand binding domain. […] We therefore also assessed the effect of sulfonamide PTSP on the DNA binding activity of LuxR and SmcR in vitro. […] (Kim et al., 2018).
# as §1
compound,measurement,setting,value
O=S(=O)(c1cccs1)n1ccc(-c2ccccc2)n1 [Compound 10B],IC50 values lower than Qstatin,Vibrio strains,~10 fold
same,Inhibition in V. cholerae (in words),V. cholerae,not active
same,Ka,SmcR [1],4.85e+06 M⁻¹
same,ΔG,SmcR [1],-38.04 kJ/mol
same,ΔH,SmcR [1],-142.10 kJ/mol
same,ΔS,SmcR [1],−348.97 J/mol · K
same,−TΔS,SmcR [1],104.05 kJ/mol
same,Kd,"SmcR [1]; 25° C., read-out: Kd",0.227 µM
same,ΔG,SmcR [1]; listed as PTSP,-38 kJ/mol
same,Kd,SmcR [1]; read-out: Dissociation constant (Kd),0.23 µM
same,IC50,"[2]; ATCC27562, read-out: IC50, V. vulnificus ATCC 27562, luxCDABE reporter plasmid",0.04 µM
same,IC50,"[2]; ATCC27562, read-out: Inhibition (IC50) of the PluxC-gfp reporter, Vvul ATCC 27562",0.00196 µM
same,IC50,"[2]; read-out: IC50, V. vulnificus, b235",0.002 µM
same,IC50,"[2]; read-out: IC50 values for all three V. vulnificus clinical isolates, three clinical isolates",0.002 to 0.03 µM
same,IC50,"[2]; read-out: Inhibition (IC50) of the PluxC-gfp reporter, Vvul CMPC6",0.0295 µM
same,IC50,"[2]; read-out: Inhibition (IC50) of the PluxC-gfp reporter, Vvul YJ016",0.00378 µM
same,Inhibition of VcpR in E. coli bioassay,VcpR,inhibited
same,Protease activity of wild-type strain,[3],significantly reduced protease activity
same,Protease activity of wild-type strain,[4],significantly reduced protease activity
same,Inhibition of LuxR in E. coli bioassay,LuxR,inhibited
same,Inhibition of HapR in E. coli bioassay,HapR; 25 μM PTSP,unresponsive
same,Inhibition of HapR single substitutions,"HapR; HapR Y76F, L97I, I141V, F171C, each alone",none of these substitutions alone were sufficient to make HapR sensitive
same,Inhibition of HapR Y76F and F171C combination,HapR; combination of Y76F and F171C,did not result in PTSP inhibition
same,IC50,"[5]; read-out: IC50, V. parahaemolyticus RIMD2210633, luxCDABE reporter plasmid",0.28 µM
same,IC50,"[5]; read-out: Inhibition (IC50) of the PluxC-gfp reporter, Vpara 12-297/B",0.32 µM
same,IC50,"[5]; read-out: Inhibition (IC50) of the PluxC-gfp reporter, Vpara D4",0.27 µM
same,IC50,"[5]; read-out: Inhibition (IC50) of the PluxC-gfp reporter, Vpara RIMD 2210633",0.17 µM
same,Protease activity of wild-type strain,"[6]; 2.5 μM PTSP vs DMSO, V. vulnificus",significantly reduced protease activity
same,IC50,"[6]; ATCC27562, read-out: IC50 of protease inhibition, V. vulnificus ATCC 27562",0.0068 µM
same,IC50,"[6]; read-out: IC50 of protease inhibition, V. vulnificus CMPC6",0.0781 µM
same,IC50,"[6]; read-out: IC50 of protease inhibition, V. vulnificus YJ016",0.0183 µM
same,Inhibition of SmcR in E. coli bioassay,SmcR [7]; 25 μM PTSP,inhibited
same,Inhibition of SmcR C170F,SmcR [7]; SmcR substitution C170F,abolished PTSP inhibition
same,Inhibition of SmcR F75Y,SmcR [7]; SmcR substitution F75Y,abolished PTSP inhibition
same,Inhibition of SmcR I96L,SmcR [7]; SmcR substitution I96L,not significantly different from wild-type SmcR
same,Inhibition of SmcR V1401,SmcR [7]; SmcR substitution V1401,not significantly different from wild-type SmcR
same,Inhibition of OpaR in E. coli bioassay,OpaR,inhibited
same,DNA binding to SmcR,SmcR [8],did not alter DNA binding
